Here are results for 4 molecules from PMC8307647, “Bio-Guided Fractionation of Stem Bark Extracts from Phyllanthus muellarianus: Identification of Phytocomponents with Anti-Cholinesterase Activity” (Molecules, 2021).

One test has as its target BuChE from human serum (Homo sapiens, UniProt P06276). The test is described as follows: biochemical. To be noted: for inhibition at 100 µg/mL: read-out: Inhibition hBuChE at 100 µg/mL % ± SD. The class given is biochemical.
For a further test, the target named is Human recombinant AChE (Homo sapiens, UniProt P22303). The test is described as follows: biochemical. To be noted: for inhibition at 100 µg/mL: read-out: Inhibition hAChE at 100 µg/mL % ± SD.
Another test has as its system male Swiss mice. Also noted: method as in PMID 29186770. To be noted: single dose 20 mg kg−1 b.w.; cited from earlier work.
The next test concerns human cholinesterases. The note with it: cited from earlier work.
Another test relates to Aβ. To be noted: cited from earlier work.
In the next test the test system is T1, Aβ1–42.
T1 construct: 42-aminoacid long Aβ peptide (Aβ1–42) self-aggregation; purchased Bachem AG, Bubendorf, Switzerland
The test is described as follows: Inhibition of Aβ1–42 self-aggregation, thioflavin T fluorescence assay. To be noted: 1:1 molar ratio with Aβ (50 μM), 30 °C, 24 h. Format: biochemical. As to the method: As reported in the previously published protocol by Bartolini et al., 1,1,1,3,3,3,hexafluoro 2-propanol pre-treated Aβ1–42 samples (Bachem AG, Bubendorf, Switzerland) were solubilized with a AcCN/0.3 mM Na2CO3/250 mM NaOH (48.4/48.4/3.2) mixture to obtain a 500 μM stock solution. Experiments were performed by diluting (final Aβ concentration 50 μM) and incubating the peptide in 10 mM phosphate buffer (pH = 8.0) containing 10 mM NaCl, at 30 °C for 24 h with and without nitidine (50 μM, Aβ/nitidine = 1/1). A blank sample containing nitidine was also prepared. To quantify amyloid fibril formation, the thioflavin T fluorescence method was used. After incubation, samples were diluted to a final volume of 2.0 mL with 50 mM glycine-NaOH buffer (pH 8.5) containing 1.5 μM thioflavin T. A 300-second time scan of fluorescence intensity was carried out (λexc = 446 nm; λem = 490 nm, FP-6200 fluorometer, Jasco Europe, Cremella, Italy), and values at plateau were averaged after subtracting the background fluorescence of 1.5 μM thioflavin T solution. The fluorescence intensities obtained in the absence and in the presence of nitidine were compared and the percent inhibition due to the presence of nitidine was calculated by the following formula: 100 − (100 × IFi/IFo), where IFi and IFo are the fluorescence intensities obtained for Aβ1–42 in the presence and in the absence of nitidine, respectively.

Structures are written as SMILES. Where two headings read alike, the source gives them in different places. Where only a bound is given, the exact number is not on record here.

BuChE from human serum, sequence (P06276 29-602): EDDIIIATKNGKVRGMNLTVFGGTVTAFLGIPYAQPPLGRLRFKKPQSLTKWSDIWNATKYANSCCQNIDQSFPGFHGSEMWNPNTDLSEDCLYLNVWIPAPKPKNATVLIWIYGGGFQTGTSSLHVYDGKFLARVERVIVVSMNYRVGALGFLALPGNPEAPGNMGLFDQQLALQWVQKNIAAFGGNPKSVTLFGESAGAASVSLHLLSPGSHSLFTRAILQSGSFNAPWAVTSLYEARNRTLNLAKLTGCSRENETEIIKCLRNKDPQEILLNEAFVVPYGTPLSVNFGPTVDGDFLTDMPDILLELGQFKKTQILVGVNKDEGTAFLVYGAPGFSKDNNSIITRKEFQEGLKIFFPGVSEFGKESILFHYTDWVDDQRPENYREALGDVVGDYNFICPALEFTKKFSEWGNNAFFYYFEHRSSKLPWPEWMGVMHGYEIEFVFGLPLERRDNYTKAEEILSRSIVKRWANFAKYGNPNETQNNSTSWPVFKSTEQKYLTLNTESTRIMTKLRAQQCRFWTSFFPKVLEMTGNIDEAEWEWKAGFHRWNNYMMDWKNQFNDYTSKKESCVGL
Human recombinant AChE, sequence (P22303 32-614): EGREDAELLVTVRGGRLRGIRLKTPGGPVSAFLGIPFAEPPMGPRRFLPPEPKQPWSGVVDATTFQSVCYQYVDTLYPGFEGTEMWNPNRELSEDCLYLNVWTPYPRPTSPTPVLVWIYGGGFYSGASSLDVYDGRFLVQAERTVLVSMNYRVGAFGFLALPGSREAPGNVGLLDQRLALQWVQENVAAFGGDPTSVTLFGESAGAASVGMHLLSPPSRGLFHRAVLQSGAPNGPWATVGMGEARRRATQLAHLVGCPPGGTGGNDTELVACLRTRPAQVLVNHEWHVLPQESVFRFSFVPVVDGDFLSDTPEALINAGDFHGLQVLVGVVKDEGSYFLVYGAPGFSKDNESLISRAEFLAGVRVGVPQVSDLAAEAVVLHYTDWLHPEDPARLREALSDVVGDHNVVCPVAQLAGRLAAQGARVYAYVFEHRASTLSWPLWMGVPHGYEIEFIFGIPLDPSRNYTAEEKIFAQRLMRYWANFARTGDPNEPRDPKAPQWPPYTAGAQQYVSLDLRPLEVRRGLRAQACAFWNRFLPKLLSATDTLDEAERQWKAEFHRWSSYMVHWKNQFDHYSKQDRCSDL

In the case of `COc1ccc2c3c1O[C@H]1C[C@@H](O)C=C[C@@]31CCN(C)C2` [Galanthamine, reference compound], the inhibition at 100 µg/mL at BuChE from human serum was > 90%.

For `COc1ccc2c(c1O)-c1c(O)c(OC)cc3c1[C@H](C2)[N+](C)(C)CC3` [Magnoflorine (PC1), Magnoflorine], the IC50 on Human recombinant AChE (read-out: IC50 hAChE µM ± SD) is 1120 ± 83 µM; on BuChE from human serum (read-out: IC50 hBuChE µM ± SD), 131 ± 9 µM. Besides, the inhibition at 100 µg/mL at Human recombinant AChE amounted to 19 ± 2.9%; on BuChE from human serum it was 69.9 ± 2.4%. The same molecule gave a selectivity index on BuChE from human serum (selective for hBuChE over hAChE) of 8.5. The “cognitive functions in a passive avoidance test” value in the test on male Swiss mice is listed as “significantly enhanced”. For the same molecule, the “long-term scopolamine-induced memory impairment” value with male Swiss mice was “able to reverse”.

Turning to `COc1ccc2c(c[n+](C)c3c4cc5c(cc4ccc23)OCO5)c1OC` [chelerythrine, 1,2-dimethoxy-12-methyl[1,3]benzodioxolo[5,6-c]phenanthridin-12-ium], the “inhibition of human cholinesterases” value in the test on human cholinesterases is “micromolar inhibitor”. For the same molecule, the “inhibition of Aβ self-aggregation” value in the test on Aβ is listed as “significantly inhibit”.

Turning to `COc1cc2c[n+](C)c3c4cc5c(cc4ccc3c2cc1OC)OCO5` [Nitidine (PC3), 2,3-dimethoxy-12-methyl-[1,3]benzodioxolo[5,6-c]phenanthridin-12-ium], the IC50 at Human recombinant AChE amounted to 5.31 ± 0.5 µM; on BuChE from human serum it was 6.68 ± 0.13 µM. For the same molecule, the inhibition at 100 µg/mL on Human recombinant AChE and at BuChE from human serum was > 90% each time. For the same molecule, the “inhibition percentage of Aβ1–42 self-aggregation” value with Aβ1–42 is 15.9 ± 1.0.

The IC50 is the concentration at which inhibition is half-maximal.
